According to the NIST ThermoML archive (doi:10.1007/s10765-006-0056-z):
Numbers after ± are expanded uncertainties.

Assay: molar heat capacity at constant volume; xn = mol fraction of the nth substance listed

CCCCCCCCCC [decane] + O=C=O
Details | molar heat capacity at constant volume [J/K/mol]
443.07 K, Fluid (supercritical or subcritical phases), Mass density=374.7 kg/m3, Isochoric Heat Capacity Apparatus, x1 = 0.095 | 344.18 ± 6.9
443.68 K, Fluid (supercritical or subcritical phases), Mass density=374.7 kg/m3, Isochoric Heat Capacity Apparatus, x1 = 0.095 | 343.49 ± 6.9
444.49 K, Fluid (supercritical or subcritical phases), Mass density=374.7 kg/m3, Isochoric Heat Capacity Apparatus, x1 = 0.095 | 342.85 ± 6.9
447.32 K, Fluid (supercritical or subcritical phases), Mass density=457.5 kg/m3, Isochoric Heat Capacity Apparatus, x1 = 0.178 | 485.87 ± 9.7
447.32 K, Liquid, iso, x1 = 0.178 | 568.28 ± 11
447.95 K, Fluid (supercritical or subcritical phases), Mass density=457.5 kg/m3, Isochoric Heat Capacity Apparatus, x1 = 0.178 | 478.12 ± 9.6
448.27 K, Fluid (supercritical or subcritical phases), Mass density=457.5 kg/m3, Isochoric Heat Capacity Apparatus, x1 = 0.178 | 482.3 ± 9.7
448.55 K, Fluid (supercritical or subcritical phases), Mass density=457.5 kg/m3, Isochoric Heat Capacity Apparatus, x1 = 0.178 | 479.96 ± 9.6
449.12 K, Fluid (supercritical or subcritical phases), Mass density=398.3 kg/m3, Isochoric Heat Capacity Apparatus, x1 = 0.095 | 331.01 ± 6.6
451.39 K, Fluid (supercritical or subcritical phases), Mass density=201.8 kg/m3, Isochoric Heat Capacity Apparatus, x1 = 0.178 | 488.2 ± 9.8
451.39 K, Liquid, iso, x1 = 0.178 | 574.18 ± 12
452.33 K, Fluid (supercritical or subcritical phases), Mass density=457.5 kg/m3, Isochoric Heat Capacity Apparatus, x1 = 0.178 | 465.26 ± 9.3
452.33 K, Fluid (supercritical or subcritical phases), Mass density=509.4 kg/m3, Isochoric Heat Capacity Apparatus, x1 = 0.095 | 318.95 ± 6.4
453.23 K, Fluid (supercritical or subcritical phases), Mass density=457.5 kg/m3, Isochoric Heat Capacity Apparatus, x1 = 0.178 | 462.99 ± 9.3
457.12 K, Fluid (supercritical or subcritical phases), Mass density=374.7 kg/m3, Isochoric Heat Capacity Apparatus, x1 = 0.095 | 340.82 ± 6.8
457.77 K, Liquid, iso, x1 = 0.178 | 595.83 ± 12
459 K, Fluid (supercritical or subcritical phases), Mass density=477.6 kg/m3, Isochoric Heat Capacity Apparatus, x1 = 0.095 | 323.65 ± 6.5
460.15 K, Liquid, iso, x1 = 0.178 | 606.1 ± 12
460.39 K, Fluid (supercritical or subcritical phases), Mass density=320.2 kg/m3, Isochoric Heat Capacity Apparatus, x1 = 0.095 | 354.21 ± 7.1
460.69 K, Fluid (supercritical or subcritical phases), Mass density=320.2 kg/m3, Isochoric Heat Capacity Apparatus, x1 = 0.095 | 351.33 ± 7
460.89 K, Fluid (supercritical or subcritical phases), Mass density=320.2 kg/m3, Isochoric Heat Capacity Apparatus, x1 = 0.095 | 350 ± 7
463.26 K, Fluid (supercritical or subcritical phases), Mass density=87 kg/m3, Isochoric Heat Capacity Apparatus, x1 = 0.095 | 712.69 ± 14
463.26 K, Fluid (supercritical or subcritical phases), Mass density=398.3 kg/m3, Isochoric Heat Capacity Apparatus, x1 = 0.095 | 334.16 ± 6.7
463.45 K, Fluid (supercritical or subcritical phases), Mass density=457.5 kg/m3, Isochoric Heat Capacity Apparatus, x1 = 0.178 | 459.11 ± 9.2
463.65 K, Fluid (supercritical or subcritical phases), Mass density=87 kg/m3, Isochoric Heat Capacity Apparatus, x1 = 0.095 | 685.49 ± 14
463.85 K, Fluid (supercritical or subcritical phases), Mass density=87 kg/m3, Isochoric Heat Capacity Apparatus, x1 = 0.095 | 688.16 ± 14
464.05 K, Fluid (supercritical or subcritical phases), Mass density=87 kg/m3, Isochoric Heat Capacity Apparatus, x1 = 0.095 | 691.36 ± 14
465.43 K, Fluid (supercritical or subcritical phases), Mass density=87 kg/m3, Isochoric Heat Capacity Apparatus, x1 = 0.095 | 690.82 ± 14
466.3 K, Fluid (supercritical or subcritical phases), Mass density=408.8 kg/m3, Isochoric Heat Capacity Apparatus, x1 = 0.178 | 493.61 ± 9.9
467.05 K, Fluid (supercritical or subcritical phases), Mass density=408.8 kg/m3, Isochoric Heat Capacity Apparatus, x1 = 0.178 | 490.54 ± 9.8
467.19 K, Fluid (supercritical or subcritical phases), Mass density=87 kg/m3, Isochoric Heat Capacity Apparatus, x1 = 0.095 | 706.83 ± 14
467.97 K, Fluid (supercritical or subcritical phases), Mass density=408.8 kg/m3, Isochoric Heat Capacity Apparatus, x1 = 0.178 | 487.71 ± 9.8
468.76 K, Fluid (supercritical or subcritical phases), Mass density=374.7 kg/m3, Isochoric Heat Capacity Apparatus, x1 = 0.095 | 336.34 ± 6.7
468.76 K, Fluid (supercritical or subcritical phases), Mass density=408.8 kg/m3, Isochoric Heat Capacity Apparatus, x1 = 0.178 | 486.42 ± 9.7
470.72 K, Fluid (supercritical or subcritical phases), Mass density=477.6 kg/m3, Isochoric Heat Capacity Apparatus, x1 = 0.095 | 326.31 ± 6.5
471.2 K, Fluid (supercritical or subcritical phases), Mass density=281.4 kg/m3, Isochoric Heat Capacity Apparatus, x1 = 0.095 | 360.93 ± 7.2
471.69 K, Fluid (supercritical or subcritical phases), Mass density=281.4 kg/m3, Isochoric Heat Capacity Apparatus, x1 = 0.095 | 359.81 ± 7.2
471.89 K, Fluid (supercritical or subcritical phases), Mass density=281.4 kg/m3, Isochoric Heat Capacity Apparatus, x1 = 0.095 | 358.48 ± 7.1
473.25 K, Fluid (supercritical or subcritical phases), Mass density=281.4 kg/m3, Isochoric Heat Capacity Apparatus, x1 = 0.095 | 350.91 ± 7
474.61 K, Fluid (supercritical or subcritical phases), Mass density=457.5 kg/m3, Isochoric Heat Capacity Apparatus, x1 = 0.178 | 456.77 ± 9.2
475.97 K, Fluid (supercritical or subcritical phases), Mass density=110.8 kg/m3, Isochoric Heat Capacity Apparatus, x1 = 0.095 | 594.8 ± 12
476.12 K, Fluid (supercritical or subcritical phases), Mass density=110.8 kg/m3, Isochoric Heat Capacity Apparatus, x1 = 0.095 | 599.07 ± 12
476.33 K, Fluid (supercritical or subcritical phases), Mass density=110.8 kg/m3, Isochoric Heat Capacity Apparatus, x1 = 0.095 | 591.07 ± 12
476.36 K, Fluid (supercritical or subcritical phases), Mass density=320.2 kg/m3, Isochoric Heat Capacity Apparatus, x1 = 0.095 | 342.64 ± 6.8
476.56 K, Fluid (supercritical or subcritical phases), Mass density=408.8 kg/m3, Isochoric Heat Capacity Apparatus, x1 = 0.178 | 472.21 ± 9.5
476.75 K, Fluid (supercritical or subcritical phases), Mass density=110.8 kg/m3, Isochoric Heat Capacity Apparatus, x1 = 0.095 | 590.53 ± 12
476.94 K, Fluid (supercritical or subcritical phases), Mass density=398.3 kg/m3, Isochoric Heat Capacity Apparatus, x1 = 0.095 | 336.82 ± 6.7
477.33 K, Fluid (supercritical or subcritical phases), Mass density=110.8 kg/m3, Isochoric Heat Capacity Apparatus, x1 = 0.095 | 594.8 ± 12
477.52 K, Fluid (supercritical or subcritical phases), Mass density=374.7 kg/m3, Isochoric Heat Capacity Apparatus, x1 = 0.095 | 337.73 ± 6.8
477.52 K, Fluid (supercritical or subcritical phases), Mass density=375 kg/m3, Isochoric Heat Capacity Apparatus, x1 = 0.178 | 493.12 ± 9.8
477.81 K, Fluid (supercritical or subcritical phases), Mass density=375 kg/m3, Isochoric Heat Capacity Apparatus, x1 = 0.178 | 495.64 ± 9.9
478.2 K, Fluid (supercritical or subcritical phases), Mass density=375 kg/m3, Isochoric Heat Capacity Apparatus, x1 = 0.178 | 491.03 ± 9.8
478.49 K, Fluid (supercritical or subcritical phases), Mass density=375 kg/m3, Isochoric Heat Capacity Apparatus, x1 = 0.178 | 492.57 ± 9.8
479.84 K, Fluid (supercritical or subcritical phases), Mass density=408.8 kg/m3, Isochoric Heat Capacity Apparatus, x1 = 0.178 | 471.47 ± 9.4
481.77 K, Fluid (supercritical or subcritical phases), Mass density=241 kg/m3, Isochoric Heat Capacity Apparatus, x1 = 0.095 | 380.35 ± 7.6
481.96 K, Fluid (supercritical or subcritical phases), Mass density=241 kg/m3, Isochoric Heat Capacity Apparatus, x1 = 0.095 | 378.38 ± 7.6
482.02 K, Fluid (supercritical or subcritical phases), Mass density=131.5 kg/m3, Isochoric Heat Capacity Apparatus, x1 = 0.095 | 517.93 ± 10
482.41 K, Fluid (supercritical or subcritical phases), Mass density=131.5 kg/m3, Isochoric Heat Capacity Apparatus, x1 = 0.095 | 521.08 ± 10
483.31 K, Fluid (supercritical or subcritical phases), Mass density=241 kg/m3, Isochoric Heat Capacity Apparatus, x1 = 0.095 | 370.32 ± 7.4
483.37 K, Fluid (supercritical or subcritical phases), Mass density=131.5 kg/m3, Isochoric Heat Capacity Apparatus, x1 = 0.095 | 528.44 ± 11
485.04 K, Fluid (supercritical or subcritical phases), Mass density=281.4 kg/m3, Isochoric Heat Capacity Apparatus, x1 = 0.095 | 352.45 ± 7
